Measured values reported in US20020058708A1, “Compositions containing hypotriglyceridemically active stilbenoids” (priority 2000, published 2002).

Experiments:
[1] = reported by Arichi et al. 1982; cited from earlier work
[2] = test system: fat fed, STZ treated male Sprague Dawley rats; test: In vivo hypotriglyceridemic activity: serum triglyceride levels in fat-fed STZ treated rats; design: species or system rat; details: 250 mg/kg body weight q.d.
Text: This example illustrates the effectiveness of the stilbenoids of formula (I) in reducing serum triglyceride levels in fat-fed STZ treated male Sprague Dawley rats, i.e., an art-recognized model of hypertriglyceridemia.
This example illustrates the effectiveness of the stilbenoids of formula (I), e.g. longistyline A-2-carboxylic acid (Compound A) in reducing serum triglyceride levels in fat fed, STZ treated male Sprague Dawley rats, i.e., an art recognized model of hypertriglyceridemia. […]
Blood samples from tail snips bleeds were collected six hours after the dose on day one, and three (3) and six (6) hours after the administration of the dose on days 2 through 4 into M brand (Becton Dickinson, Franklin Lakes, N.J.) serum separator tubes, and centrifuged at 12,000 rpm for 10 minutes. Serum was removed and triglyceride levels were measured using enzymatic […] methods (M. W. McGowan, et al., Clin. Chem. 29, 538 (1983) and P Trinder, Ann. Clin. Biochem. 6, 24 (1969)) using Sigma Diagnostic Kits, Sigma Chemical Company, St. Louis, Mo.
Triglyceride levels are expressed as the mean ±SEM. Data were analyzed by one-way analysis of variance (ANOVA), followed by post-hoc Fisher's protected least squares difference (PLSD) tests. […]

[3] = Daily mean food consumption of treated fat fed, STZ treated rats; assay type: in vivo, rat; details: 250 mg/kg q.d.; FIG. 4
Description: (§1) FIG. 4 is a line graph showing the mean food consumption (mg) in fat fed, STZ treated rats administered with GELUCIRE™ vehicle only; and 3-hydroxy-4-(3-methyl-2-butenyl)-5-methoxystilbene-2-carboxylic acid (Compound A). -∘- represents vehicle; and -▪- represents Compound A administered at 250 mg/kg q.d. Animals were administered the vehicle and compounds at 24, 48, 72 and 96 h, and serum triglyceride levels were measured at 0, 30, 51, 54, 75 and 80 hours after the oral administration. All data points N=8. *P<0.05 (analysis of variance (ANOVA), one factor).
(§2) Male Sprague Dawley rats arrival from Charles River Laboratories, Hollister, Calif., were fed a high fat (20% by weight) diet (TD 78463) obtained from Harlan Teklad, Madison, Wis., which was stored at 4° C. prior to use. Administration of a high fed diet is a well-known method of inducing hypertriglyceridemia in rats.
(§3) Compound A formulations were prepared fresh daily. The appropriate amount of Compound A in GELUCIRE™ was administered by oral gavage at a volume of 2.5 ml/kg of body weight. Animals were fasted at 8:00 am each day.

[4] = Daily mean body weight of treated fat fed, STZ treated rats; assay type: in vivo, rat; details: 250 mg/kg q.d.; FIG. 3
Description: as §1, with “FIG. 3” for “FIG. 4”, “mean body weight” for “mean food consumption”
as §2, §3

| Compound | Liver lipid levels [1] | Serum triglyceride levels [1] | Serum triglyceride (TG) levels compared with vehicle only ([2]; oral gavage in GELUCIRE vehicle, at each of the time points, p<0.05, FIG. 2) | Mean TG levels compared with GELUCIRE vehicle treatment group at individual sampling times ([2]; from day 2 through the end of treatment) | Food intake (daily mean food consumption) [3] | Gain in rat body weight over the course of treatment [4] |
| --- | --- | --- | --- | --- | --- | --- |
| OC[C@H]1O[C@@H](Oc2cc(O)cc(/C=C/c3ccc(O)cc3)c2)[C@H](O)[C@@H](O)[C@@H]1O [Piceid, 3,4′,5-trihydroxystilbene-3-O-β-D-glucopyranoside] | lower | lower |  |  |  |  |
| OC[C@H]1OC(Oc2c(O)cc(O)cc2C=Cc2ccc(O)cc2)[C@H](O)[C@@H](O)[C@@H]1O (stereo partly drawn) [2,3,5,4′-tetrahydroxy stilbene-2-O-D-glucoside] |  | reduce |  |  |  |  |
| COc1cc(/C=C/c2ccccc2)c(C(=O)O)c(O)c1CC=C(C)C [Compound A, 3-hydroxy-4-(3-methyl-2-butenyl)-5-methoxystilbene-2-carboxylic acid] |  |  | significantly lower | significantly lower | not effected by the treatments | normal and similar among the treatment groups |
